Measured values reported in patent publication US8343475B2, “Small cationic antimicrobial peptides” (priority 2006, dated 2013).
≈ marks a conversion by molar mass, not a printed value. Residues, ends and D or L forms follow the SMILES beside them.

Assays:
[1] = system: Pseudomonas aeruginosa PAO1 strain H103; format: cell-based; conditions: for antimicrobial activity against P. aeruginosa PAO1 (in words): laboratory strain P. aeruginosa PAO1
How it was run: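 Modified broth microdilution MIC in Mueller Hinton medium, peptides diluted in 0.01% acetic acid/0.2% BSA, polypropylene plates. Inoculum 2-7×10^5 CFU/ml, overnight at 37 °C; MIC is the lowest concentration with no visible growth.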

[2] = system: Enterococcus faecalis ATCC29212; format: cell-based; conditions: ATCC29212
How it was run: (§1)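 First, peptides were serially diluted at ten times final strength in 0.01% acetic acid with 0.2% BSA. These were then added to Mueller Hinton medium and inoculated with overnight-grown organisms at 2-7×10^5 CFU/ml. After overnight incubation at 37° C, the MIC was scored as the concentration without growth.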

Escherichia coli UB1005 = format: cell-based; conditions: UB1005
How it was run: as §1

[3] = system: Staphylococcus aureus ATCC25923; format: cell-based; conditions: ATCC25923
How it was run: as §1

[4] = system: clinical isolate of Staphylococcus epidermidis; format: cell-based; conditions: clinical isolate of
How it was run: as §1

[5] = system: lab isolate of Candida albicans; format: cell-based; conditions: lab isolate of
How it was run: as §1

[6] = system: wild-type Salmonella enterica ssp. typhimurium; format: cell-based
How it was run: as §1

[7] = system: IL8 release by human PBMC; assay: Chemokine induction in PBMC (capture ELISA); format: cell-based; conditions: 20 or 100 μg/ml peptide, 24 hours (FIG. 14)
Description: FIG. 14. Induction of IL8 release by 7.5×10^5 human PBMC in response to treatment with 20 or 100 μg/ml of different peptides for 24 hours.
Venous blood (20 ml) from healthy volunteers was collected in Vacutainer® collection tubes containing sodium heparin as an anticoagulant (Becton Dickinson, Mississauga, ON) in accordance with UBC ethical approval and guidelines. Blood was diluted 1:1 with complete RPMI 1640 medium and separated by centrifugation over a Ficoll-Paque® Plus (Amersham Biosciences, Piscataway, N.J., USA) density gradient. White blood cells were isolated from the buffy coat, washed twice in RPMI 1640 complete medium, and the number of peripheral blood mononuclear cells (PBMC) was determined by trypan blue exclusion. PBMC (5×10^5) were seeded into 12-well tissue culture dishes (Falcon; Becton Dickinson) at 0.75 to 1×10^6 cells/ml at 37° C. in 5% CO2. The above conditions were chosen to mimic conditions for circulating blood monocytes entering tissues at the site of infection via extravasation.
Following incubation of the cells under various treatment regimens, the tissue culture supernatants were centrifuged at 1000×g for 5 min, then at 10,000×g for 2 min to obtain cell-free samples. Supernatants were aliquoted and then stored at −20° C. prior to assay for various chemokines by capture ELISA (eBioscience and BioSource International Inc., CA, USA respectively)

[8] = system: MCP-1 release by human PBMC; assay: Chemokine induction in PBMC (capture ELISA); format: cell-based; conditions: background (204) subtracted
How it was run: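 Heparinized blood from healthy volunteers; Ficoll-isolated human PBMC (7.5×10^5) treated with peptides at 20 or 100 μg/ml for 24 hours at 37° C, 5% CO2. Cell-free supernatants assayed for MCP-1 by capture ELISA.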

[9] = system: MCP-3 release by human PBMC; assay: Chemokine induction in PBMC (capture ELISA); format: cell-based; conditions: background (6) subtracted
How it was run: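 Human PBMC from healthy donors (Ficoll-isolated), 7.5×10^5 cells at 0.75–1×10^6 cells/ml, treated with peptides at 20 or 100 μg/ml for 24 h at 37° C, 5% CO2. MCP-3 in cell-free supernatants measured by capture ELISA.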

[10] = system: CXCL1 (Gro-α) release by human PBMC; assay: Chemokine induction in PBMC (capture ELISA); format: cell-based; conditions: background (196) subtracted
How it was run: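 Human PBMC from healthy donors' heparinised blood (Ficoll), 7.5×10^5 cells treated with 20 or 100 μg/ml peptide for 24 h at 37° C, 5% CO2. Cell-free supernatants assayed for CXCL1 by capture ELISA.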

[11] = system: clinical isolates of MRSA; format: cell-based, Staphylococcus aureus
How it was run: (§2)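 Modified broth microdilution in Mueller Hinton medium, peptides serially diluted in 0.01% acetic acid with 0.2% BSA in polypropylene plates. Inoculum 2-7×10^5 CFU/ml, overnight incubation at 37° C; MIC taken as lowest concentration with no visible growth.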

ESBL E. cloacae = format: cell-based, Enterobacter cloacae
How it was run: as §2

[12] = system: Liverpool Epidemic Strains; format: cell-based, Pseudomonas aeruginosa
How it was run: as §2

[13] = system: multidrug resistant Brazilian clinical isolates of P. aeruginosa; format: cell-based, Pseudomonas aeruginosa
How it was run: as §2

[14] = system: ESBL E. coli clinical strain 64771; format: cell-based; conditions: ESBL clinical strain 64771
How it was run: (§3)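 Broth microdilution in Mueller Hinton medium, peptides serially diluted in 0.01% acetic acid with 0.2% BSA in polypropylene plates. Inoculum 2-7×10^5 CFU/ml, incubated overnight at 37° C. MIC is the lowest concentration with no visible growth.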

[15] = system: ESBL Klebsiella pneumonia clinical strain 63575; format: cell-based
How it was run: as §3

[16] = system: VRE Vancomycin resistant Enterococcus faecalis clinical isolates; format: cell-based
How it was run: as §3

[17] = system: VRE Vancomycin resistant Enterococcus faecium clinical isolates; format: cell-based
How it was run: as §3

[18] = system: multidrug resistant Pseudomonas maltophilia ATCC13637; format: cell-based
How it was run: as §3

LDH release = format: cell-based; design: dose or concentration left out as unconfirmed
Description: In addition the following peptides were tested for LDH release: 1002, 1005, 1012, 1010, 1013, 1018, 1020, 1026, 1028, 1032, 1033, 1035, and 1037.

Row | MIC [2] [µM] | MIC [3] [µM] | MIC [11] [µM] | MIC (ESBL E. cloacae) [µM] | MIC [12] [µM] | MIC [13] [µM] | MIC [14] [µM] | MIC [15] [µM] | MIC [16] [µM] | MIC [18] [µM] | Compound | Chemokine induction MCP-1 ([8]; 20 μg/ml peptide) [pg/mL] | Chemokine induction MCP-1 ([8]; 100 μg/ml peptide) [pg/mL] | Chemokine induction MCP-3 ([9]; 20 μg/ml peptide) [pg/mL] | Chemokine induction MCP-3 ([9]; 100 μg/ml peptide) [pg/mL] | Chemokine induction Gro-α ([10]; 20 μg/ml peptide) [pg/mL] | Chemokine induction Gro-α ([10]; 100 μg/ml peptide) [pg/mL] | antimicrobial activity against P. aeruginosa PAO1 (in words) [1] | also measured
1 | – | – | – | – | – | – | – | – | – | – | CC(C)[C@H](NC(=O)[C@H](CCCNC(=N)N)NC(=O)[C@H](Cc1ccccc1)NC(=O)[C@H](CCCNC(=N)N)NC(=O)[C@H](Cc1ccccc1)NC(=O)[C@H](CCCNC(=N)N)NC(=O)[C@H](Cc1ccccc1)NC(=O)[C@H](CCC(N)=O)NC(=O)[C@@H](N)Cc1c[nH]cn1)C(=O)N[C@@H](CCCNC(=N)N)C(=O)N[C@@H](CCCNC(=N)N)C(=O)N[C@@H](CCCCN)C(N)=O [HH13, HQFRFRFRVRRK] (H-HQFRFRFRVRRK-NH2; N-terminus assumed) | 1 | 0 | 40 | 54 | 15 | 42 | – | MIC P. aerug ([1]; PAO1): 50 µg/mL (≈ 28.9 µM); MIC E. faecalis [2]: >50 µg/mL; MIC E. coli (Escherichia coli UB1005): 25 µg/mL (≈ 14.4 µM); MIC S. aureus [3]: 12 µg/mL (≈ 6.93 µM); MIC S. epi. [4]: 6 µg/mL (≈ 3.46 µM); MIC C. albicans [5]: >50 µg/mL; MIC S. typhi [6]: 12 µg/mL (≈ 6.93 µM); induction of IL8 [7]: strongest abilities to induce this chemokine
2 | >226 | >226 | >226 | >226 | >226 | >226 | >226 | >226 | >226 | >226 | CC[C@H](C)[C@H](NC(=O)[C@H](CCCNC(=N)N)NC(=O)[C@@H](N)CCCCN)C(=O)N[C@@H](CCSC)C(=O)N[C@@H](CCCCN)C(=O)N[C@@H](CC(C)C)C(=O)N[C@@H](CCCCN)C(=O)N[C@@H](CCSC)C(=O)N[C@@H](CCCNC(=N)N)C(N)=O [HHC133, KRIMKLKMR] (H-KRIMKLKMR-NH2; N-terminus assumed) | 195 | 444 | 0 | 2 | 15 | 81 | did not return any generally active substances | MIC [17]: >226 µM
3 | – | – | – | – | – | – | – | – | – | – | CC[C@H](C)[C@H](NC(=O)[C@H](CCCNC(=N)N)NC(=O)[C@@H](NC(=O)[C@H](C)NC(=O)[C@@H](NC(=O)[C@@H](NC(=O)[C@H](CC(C)C)NC(=O)[C@H](CCCNC(=N)N)NC(=O)[C@@H](N)C(C)C)[C@@H](C)CC)C(C)C)C(C)C)C(=O)N[C@@H](Cc1c[nH]c2ccccc12)C(=O)N[C@@H](CCCNC(=N)N)C(=O)N[C@@H](CCCNC(=N)N)C(N)=O [compound 1018, VRLIVAVRIWRR] (H-VRLIVAVRIWRR-NH2) | – | – | – | – | – | – | – | LDH release (LDH release): None showed any LDH release
4 | >223 | 223 (≈ 272 µg/mL) | >223 | >223 | 111 (≈ 135 µg/mL) | >223 | 223 (≈ 272 µg/mL) | >223 | >223 | >223 | CC[C@H](C)[C@H](NC(=O)[C@H](CC(N)=O)NC(=O)[C@H](CCCCN)NC(=O)[C@H](Cc1ccccc1)NC(=O)[C@H](CCCNC(=N)N)NC(=O)[C@H](Cc1c[nH]c2ccccc12)NC(=O)[C@H](C)N)C(=O)N[C@@H](CCCNC(=N)N)C(=O)N[C@@H](CCCCN)C(N)=O [HHC126, AWRFKNIRK] (H-AWRFKNIRK-NH2; N-terminus assumed) | 314 | 104 | 3 | 0 | 75 | -2 | did not return any generally active substances | –
